Experimental data from ChEMBL document CHEMBL1201862, “PubChem BioAssay data set” (2004).
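Where inhibition never reached the appropriate level, the endpoint shown equals the highest concentration tested. Otherwise, values were interpolated linearly from a five-concentration, 48-hour dose response in 96-well plates. GI50 is the concentration that inhibits growth by half.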 The source made the active and inactive calls. Rule as the data show it: active = GI50 up to about 1.1 µM and inactive = higher.

How the values were obtained:
Experiment in all cases: NCI-60 cell line screen, 48 h
A549 = test system: A549
SK-MEL-2 = test system: SK-MEL-2
CCRF-CEM = test system: CCRF-CEM
A498 = test system: A498
SNB-75 = test system: SNB-75
HT-29 = test system: HT-29
EKVX = test system: EKVX
SK-MEL-28 = test system: SK-MEL-28
MOLT-4 = test system: MOLT-4
U-251 = test system: U-251
HOP-62 = test system: HOP-62
SW-620 = test system: SW-620
SK-OV-3 = test system: SK-OV-3
SN12C = test system: SN12C
LOX IMVI = test system: LOX IMVI

Measured: GI50

O=[N+]([O-])c1ccc(C2=Nn3c(nnc3-c3ccccc3)SC2)o1
inactive: A549 35.2 µM | SK-MEL-2 20.9 µM | CCRF-CEM 3.6 µM | A498 > 100 µM | SNB-75 20.4 µM | HT-29 23.7 µM | EKVX 46.8 µM | SK-MEL-28 29.2 µM | MOLT-4 24.3 µM | U-251 17.4 µM | HOP-62 44.3 µM | SW-620 18 µM | SK-OV-3 > 100 µM | SN12C 15.7 µM

Cc1cc2nc3c(=O)[nH]c(=O)nc-3n(CC(O)C(O)C(O)CO)c2cc1N (centres undefined)
inactive: A549 > 100 µM | LOX IMVI > 100 µM | SK-MEL-2 > 100 µM | CCRF-CEM > 100 µM | A498 > 100 µM | SNB-75 > 100 µM | HT-29 > 100 µM | EKVX > 100 µM | SK-MEL-28 > 100 µM | MOLT-4 > 100 µM | SW-620 > 100 µM | SK-OV-3 > 100 µM | SN12C > 100 µM

O=[N+]([O-])c1ccc(C2=Nn3cnnc3SC2)o1
inactive: A549 20.6 µM | LOX IMVI 2.06 µM | SK-MEL-2 20.9 µM | CCRF-CEM 23 µM | A498 16.3 µM | SNB-75 25.3 µM | HT-29 11.3 µM | SK-MEL-28 16.6 µM | MOLT-4 20 µM | U-251 16.3 µM | HOP-62 38.2 µM | SW-620 12.2 µM | SK-OV-3 > 10 µM | SN12C 16.5 µM

CC(C)=CC(=O)CC(=O)C(=O)Nc1ccc(C)c(C)c1
inactive: A549 > 100 µM | LOX IMVI > 100 µM | SK-MEL-2 > 100 µM | CCRF-CEM > 100 µM | SNB-75 > 100 µM | HT-29 > 100 µM | EKVX > 100 µM | SK-MEL-28 > 100 µM | MOLT-4 > 100 µM | U-251 > 100 µM | SW-620 > 100 µM | SK-OV-3 > 100 µM | SN12C > 100 µM

COc1ccc([N+]2=NC(c3ccc([N+](=O)[O-])cc3)=NN(c3ccccc3)C2)cc1
inactive: A549 71 µM | LOX IMVI 30.1 µM | CCRF-CEM 24.9 µM | A498 41.6 µM | HT-29 34 µM | EKVX 44.4 µM | SK-MEL-28 70.8 µM | MOLT-4 21.6 µM | U-251 37.3 µM | HOP-62 > 100 µM | SW-620 68.4 µM | SN12C > 100 µM

COC(=O)C1C(C(=O)OC)C2C(=O)C3C(C(=O)OC)C(C(=O)OC)C3C(=O)C12 (centres undefined)
inactive: A549 > 100 µM | LOX IMVI > 100 µM | SK-MEL-2 > 100 µM | CCRF-CEM > 100 µM | A498 > 100 µM | HT-29 > 100 µM | EKVX > 100 µM | SK-MEL-28 > 100 µM | MOLT-4 > 100 µM | U-251 > 100 µM | HOP-62 > 100 µM | SW-620 > 100 µM | SK-OV-3 > 100 µM | SN12C > 100 µM

NC(=S)N/N=C(/CCN1CCCC1)CC(C1=C(O)C2=CCCCC2OC1=O)c1ccccc1 (centres undefined)
inactive: A549 > 100 µM | LOX IMVI > 100 µM | SK-MEL-2 > 100 µM | CCRF-CEM 80 µM | A498 > 100 µM | SNB-75 > 100 µM | HT-29 > 100 µM | EKVX > 100 µM | U-251 > 100 µM | HOP-62 > 100 µM | SW-620 37.8 µM | SK-OV-3 > 100 µM | SN12C > 100 µM

Nc1c(-c2nc3ccccc3[nH]2)sc(=S)n1-c1ccccc1
inactive: A549 > 100 µM | SK-MEL-2 > 100 µM | CCRF-CEM 26.1 µM | A498 > 100 µM | SNB-75 44.8 µM | HT-29 92.9 µM | EKVX 55.2 µM | SK-MEL-28 > 100 µM | MOLT-4 16.3 µM | U-251 76.7 µM | HOP-62 > 100 µM | SW-620 > 100 µM | SK-OV-3 > 100 µM | SN12C > 100 µM

C=C[Si](C)(C)COC(=O)/C(C#N)=C/C=C/c1ccccc1
inactive: A549 > 100 µM | SK-MEL-2 > 100 µM | CCRF-CEM 32.3 µM | SNB-75 34.6 µM | HT-29 > 100 µM | EKVX > 100 µM | SK-MEL-28 > 100 µM | MOLT-4 28.7 µM | U-251 > 100 µM | HOP-62 > 100 µM | SW-620 76 µM | SK-OV-3 > 100 µM | SN12C > 100 µM

O=C(O)[C@H](NS(=O)(=O)c1ccc(F)cc1)c1ccccc1
inactive: A549 > 100 µM | LOX IMVI > 100 µM | SK-MEL-2 > 100 µM | CCRF-CEM > 100 µM | SNB-75 > 100 µM | HT-29 > 100 µM | EKVX > 100 µM | SK-MEL-28 > 100 µM | MOLT-4 > 100 µM | U-251 > 100 µM | HOP-62 > 100 µM | SW-620 > 100 µM | SK-OV-3 > 100 µM | SN12C > 100 µM
